Results taken from patent publication US20250313862A1, “INHIBITION OF GENOTOXIC STRESS TO IMPROVE T CELL ENGINEERING” (GENENTECH, INC., priority 2022, published 2025).
Entries after “also recorded” stand apart in the source; their conditions may differ. Counter-ions that a name gives are not always drawn.

Experiments:
[1] = system: human primary CD8+ T cells; assay: T cell viability 48 h post transfection (NucleoCounter NC-200); assay type: cell-based; settings: for culture viability improvement compared to the untreated control group (CTR): 6 h pretreatment prior to transfection, 48 h-post transfection, on average (FIG. 6A)
Experimental: (§1) Peripheral blood mononuclear cells (PBMCs) were isolated from human cryopreserved leukopak using Ficoll gradient centrifugation ([…], 25 min). All samples were obtained from healthy donors genotyped with HLA A*02:01 MHC class I complex. Then CD8+ T cells were isolated using the Miltenyi AutoMACS cell separator according to the manufacturer's protocol. Isolated CD8+ T cells were then mixed with Miltenyi T cell TransACT reagent (1:100) (Catalog #130-111-160), 25 ng/mL IL-7 (Catalog #130-095-367), and 50 ng/mL IL-15 (Catalog #130-095-760) in Fuji Prime-XV medium (IrvineScientific Catalog #91154) for 48 h for activation.
(§2) Cells were electroporated with the 4D-Nucleofector System (Lonza) according to the manufacturer's protocol. After activation and inhibitor treatment, 10×10^6 (or 10 million) CD8+ T cells were washed and resuspended with Lonza P3 primary cell nucleofector solution (Catalog #V4XP-3024) and then mixed with pre-mixed RNP and DNA plasmid before transferring to Lonza 100-uL cuvette. After electroporation, 400 ul of FUJI Prime-XV medium was added to the cuvette and incubated for 15 min before seeding cells in culture flask. Pulse code used in this manuscript is EH115 for all circumstances.
(§3) All inhibitors were purchased from invivogen. Unless stated otherwise, cells were cultured with Fuji Prime-XV medium with 25 ng/ml IL-7 and 50 ng/ml IL-15 (Complete medium). After electroporation, T cells were carefully transferred to 24-well gREX (Wilsonwolf, Catalog: 80192M) at 1-2 million cells/cm^2 seeding density. 8 ml of complete medium were added per well and 50% of the medium was exchanged 6 days later. Cells were incubated at 37° C. and 5% CO2. The NucleoCounter NC-200 automated cell counter with the Via2-Casette were used in this study for cell counting and viability analysis.
(§4) Two days post activation, CD8+ T cells were washed and resuspended with FUJI Prime-XV complete medium containing inhibitors at the indicated concentrations for 6 h. After treatment, cells were washed and resuspended in Lonza P3 buffer prior to electroporation. Post transfection, T cells were cultured with FUJI Prime-XV complete medium without inhibitor.

[2] = system: human primary CD8+ T cells; assay: T cell expansion fold of final cell product, 15-day T cell engineering process; assay type: cell-based; settings: for cell expansion of final T cell product: day 15, average
Experimental: as §1, §2, §3, §4

[3] = system: human primary CD8+ T cells; assay: Total edited cell (TEC) number in final drug product; assay type: cell-based; settings: for TEC number: seeding 2 million cells, day 15, on average (FIG. 6C)
Excerpt: The total edited cell number (TECs) in the final drug product is arguably the most important metric for the adoptive cell transfer (ACT) and this, among a few other conditions, is considered one of the most important criteria for cell therapy purpose since it is expected to translate to the therapeutic impact in the clinic. Using the total cell number of the final cell product on day 15 multiplied by the percentage of knock-in, we get the TECs that are representative of our T cell engineering and culture output. With a starting seeding density of 2 million cells and without inhibitor treatment, as shown for the control conditions (CTR), the TEC numbers were approximately 5.24 million on average (FIG. 6C). However, when T cells were pre-treated with the indicated inhibitors, a significant increase in the output of TECs in all donors were observed (FIGS. 4C, 4F, 4I, FIGS. 5C, 5F), which was consistent with the cell expansion data.
as §2, §3
(§5) Dextramer antibodies for knock-in analysis were purchased from Immudex (Catalog: WB3469-PE, WT1) and used following manufacturer's protocol. Surface staining, CFSE staining, 7-AAD/annexin V staining, and intracellular staining were performed as previously described. Samples were analyzed using the BD FACSLyric flow cytometer (BD Biosciences) and FlowJo v10 software. For proliferation and cell killing assay, data were corrected by a negative control or target cell-only control.
as §4

TBK1 [4] = assay: Western blot analysis of TBK1 phosphorylation post transfection; assay type: cell-based, human; settings: post BX795 pre-treatment (FIG. 8A)
Experimental: (§6) T cell pellets were collected, washed and stored as frozen pellets in −80° C. until use. Cell pellet processing, western blot experiments and data analysis were performed as previously described (Tang, J B C, 2020).
as §4

cGAS-STING pathway = cGAS-STING pathway activation in T cells (western blot and qPCR); assay type: cell-based, human; settings: pretreatment prior to transfection (FIG. 8A); hydrochloride
Experimental: as §6
(§7) RNeasy Mini Kit (Cat. #74106) was purchased from Qiagen. TaqMan RNA-to-CT 1-Step Kit (Cat. #4392938) and Taqman primer-probe assays with reporter dye FAM and MGB quenchers were purchased from Thermo Fisher (assay information listed in Table 4). After RNA isolation, 2 ng RNA was mixed with Taqman primer-probe mix, TaqMan RNA-to-CT 1-Step master mix, and RT enzyme mix in a 10 uL qPCR system according to the manufacturer's protocol. Reaction readings were measured using QuantStudio 6 Flex machine and data was analyzed using QuantStudio Real-Time PCR software v1.2. PCR cycling conditions were 50° C. for 30 min, 95° C. for 10 min, 40× cycles of 95° C. for 15 s, 60° C. for 1 min. All data points were collected in triplicates, using RNA18S as internal control (sample ID: #Hs03928990_g1).
as §4

[5] = system: human primary CD8+ T cells; assay: Knock-in/knock-out efficiency by flow cytometry (MHC-peptide dextramer and TCR staining); assay type: cell-based
Experimental: as §2, §5, §4

[6] = system: human primary CD8+ T cells; assay: T cell activation and cytokine expression after 24 h WT1 peptide pulse (flow cytometry); assay type: cell-based; settings: day 15 cells pulsed 24 h with WT1 peptide
Experimental: The cGAS-STING pathway is crucial in detecting and neutralizing genotoxic stress. It is a main component of innate immune system that can trigger inflammation in response to cytosolic DNA detection. […] Harvested T cells from inhibitor treated and control groups were pulsed for 24 h with indicated concentrations of a specific peptide (WT1), which binds to the engineered TCR. […] Another major concern is the exhaustion of the engineered T cell cultures. To measure levels of T cell exhaustion, the expression of exhaustion markers, such as Tim3 and PD-1, was evaluated.
as §5

[7] = system: human primary CD8+ T cells; assay: T cell phenotype of final T cell product by flow cytometry (TSCM, TCM, TEM, TE); assay type: cell-based; settings: pre-treatment prior to transfection; day 15; different donors; hydrochloride
Experimental: as §5, §4

[8] = system: type 1 interferons (IFNa, IFNB) and proinflammatory cytokine (IL-6); assay: Cytokine expression by qPCR 6 h post transfection; assay type: cell-based, human
Experimental: as §7, §4

[9] = system: human primary CD8+ T cells; assay: CFSE proliferation analysis, 72 h co-culture with WT1 peptide; assay type: cell-based; settings: day 15 cells, WT1 peptide 72 h
Experimental: We next investigated proliferation of T cell after treatment with BX795. The final T cell product obtained from BX795 pre-treated or untreated groups were labeled with CFSE far-red, and co-cultured with WT1 peptide at the indicated concentrations for 72 h. […] T cells treated with higher concentration of WT1 peptide achieved high (˜60%) proliferation rates, implying the strong and antigen specific proliferation of the final T cell product. Finally, we compared T cells isolated from BX795 pre-treated as well as untreated control cultures in a target cell killing assay. Target cells T2 (T) were labeled with CFSE-far red, and then pulsed with 20 uM WT1 peptide before co-incubation with our final T cell product (E) at a ratio dependent manner. […] Of note, compared with the CTLs raised from conventional vaccine strategies, our T cells achieved high killing efficiency with much lower E:T ratio [19, 20], outlining the potential advantage of antigen-specific tumor cell killing of our TCR engineered T cells.
as §5, with “For proliferation and cell killing assay, data were corrected by a negative control or target cell-only control.” left out

TBK1 [10] = settings: previous report [9]; cited from earlier work
IRF3 = assay: Western blot analysis of IRF3 phosphorylation post transfection; assay type: cell-based, human; settings: pre-treatment at both medium and high concentrations (FIG. 8A)
Experimental: as §6, §4

[11] = BX795-M (mid dosage 2.5 uM), day 15

## CC(C)c1ccc2oc3nc(N)c(C(=O)O)cc3c(=O)c2c1 [Aml, 2-amino-5-oxo-7-propan-2-ylchromeno[2,3-b]pyridine-3-carboxylic acid]
[1]; 25 uM
  culture viability improvement compared to the untreated control group (CTR): about 2 fold
[2]; 25 uM pre-treatment
  cell expansion of final T cell product: 14.5 fold
[3]; 25 uM pre-treatment
  average increase in TECs compared to the control group: 267.0%
  TEC number: 14.7 million

## O=C(NCCCNc1nc(Nc2cccc(NC(=O)N3CCCC3)c2)ncc1I)c1cccs1 [BX795, N-[3-[[5-iodo-4-[[3-[(2-thienylcarbonyl)amino]propyl]amino]-2-pyrimidinyl]amino]phenyl]-1- Pyrrolidinecarboxamide hydrochloride]
TBK1 [4]
  TBK1 phosphorylation: not attenuated and was actually enhanced
cGAS-STING pathway
  cGAS/STING pathway activation: considerable reduction in cGAS/STING pathway activation; also recorded: attenuates T cell cGAS-STING pathway
[5]; 2.5 uM pre-treated, day 4 to day 15 (FIG. 14B, 14C), hydrochloride
  exogenous TCR expression (knock-in) over the culture process vs control group: increases exogenous TCR expression; also recorded: enhances cell editing efficiency (knock-in)
[5]; BX795-H (high dosage 5 uM), day 15
  knock-out efficiency in final cell product: 83.5%
[5]; [11]
  knock-in ratio in final cell product: 61%
  knock-out efficiency in final cell product: 86.7%
[5]; day 15, same donor as FIG. 8A
  KI/KO ratio: equal or better KI/KO ratio
[6]
  activation profile (CD137, IFNg, TNFa, Granzyme B expression) vs untreated control: comparable activation profile
[7]
  T cell phenotype of final T cell product vs untreated control: no impact on the final T cell product phenotype
[8]; BX795 removed prior to transfection
  levels of type 1 interferons (IFNa, IFNB): did not show a significant decrease
[8]; pre-treatment, 6 h post transfection (FIG. 8F)
  downstream cytokine expression (IFNa, IFNB, IL-6): reduced
[9]
  T cell proliferation in response to antigen specific stimulation vs untreated: comparable
TBK1 [10]
  enhancement in TBK1 phosphorylation: 2 fold
[1]; 5 uM
  culture viability improvement compared to the untreated control group (CTR): about 2 fold
[1]; 48 h post transfection, same donor as FIG. 8A (FIG. 8B)
  % viability: higher % viability
[1]; at 2.5 uM and 5 uM
  effectiveness in improving culture viability and growth among tested inhibitors: most effective
[2]; 5 uM pre-treatment
  cell expansion of final T cell product: 20.3 fold
[2]; day 15, same donor as FIG. 8A (FIG. 8C)
  T cell expansion rate: increased T cell expansion rate
[2]; pulse code EH115 vs other pulse codes
  inhibitor performance by electroporation pulse code: performs better in EH115 groups
[3]; 2.5 uM pre-treatment
  average increase in TECs compared to the control group: 303.4%
  TEC number: 21.1 million
[3]; day 15, same donor as FIG. 8A
  TEC numbers: improved TEC numbers
[3]; mid or high concentrations (2.5 uM and 5 um), statistically significant
  improvement in TEC compared to the control group: more than 3 fold
IRF3
  phosphorylation of IRF3 post transfection: attenuated phosphorylation of IRF3

## O=C(NCCCNc1nc(Nc2cccc(CN3CCOCC3)c2)ncc1C1CC1)C1CCC1 [MRT, N-[3-[[5-cyclopropyl-2-[3-(morpholin-4-ylmethyl)anilino]pyrimidin-4-yl]amino]propyl] cyclobutanecarboxamide]
[1]; 2.5 uM
  culture viability improvement compared to the untreated control group (CTR): about 2 fold
[2]; 5 uM pre-treatment
  cell expansion of final T cell product: 17.2 fold
[3]; 5 uM pre-treatment
  average increase in TECs compared to the control group: 180%
  TEC number: 17.4 million
